biological target: T1, Tyrosine-protein phosphatase non-receptor type 1 (Homo sapiens, UniProt P18031); assay: Inhibition of GST-tagged PTP1B (1 to 321 residues) (unknown origin) using p-NPP as substrate preincubated for 10 mins followed by substrate addition measured after 30 mins
T1 sequence (P18031 whole entry): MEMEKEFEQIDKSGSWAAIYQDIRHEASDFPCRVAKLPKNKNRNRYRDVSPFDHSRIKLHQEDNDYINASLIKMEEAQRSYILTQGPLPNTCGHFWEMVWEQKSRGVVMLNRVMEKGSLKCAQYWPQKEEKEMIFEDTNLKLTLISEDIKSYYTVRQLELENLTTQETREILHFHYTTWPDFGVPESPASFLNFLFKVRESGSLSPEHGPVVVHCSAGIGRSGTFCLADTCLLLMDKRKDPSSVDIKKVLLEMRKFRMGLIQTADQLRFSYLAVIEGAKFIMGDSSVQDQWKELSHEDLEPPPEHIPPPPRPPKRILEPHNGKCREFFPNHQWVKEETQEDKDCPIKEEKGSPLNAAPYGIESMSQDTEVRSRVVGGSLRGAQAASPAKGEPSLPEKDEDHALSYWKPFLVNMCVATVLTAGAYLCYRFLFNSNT

Row | Structure (SMILES) | IC50
1 | CCCCC/C=C\C/C=C\CCCCCCCC1(O)CC(=O)c2c(O)c(C)c(O)c(C)c2O1 (stereo unspecified) | 2.7 µM
2 | CCCC/C=C\CCCCCCCCCC1(O)CC(=O)c2c(O)c(C)c(O)c(C)c2O1 (stereo unspecified) | 1.8 µM

The remaining molecules from weak to strong by IC50, led by results:

Row | IC50 | Structure (SMILES)
3 | 2 µM | CCCCCCCCCCCCCCCC1(O)CC(=O)c2c(O)cc(O)cc2O1 (stereo unspecified)
4 | 1.6 µM | CC/C=C\C/C=C\C/C=C\CCCCCCCC1(O)CC(=O)c2c(O)c(C)c(O)c(C)c2O1 (stereo unspecified)
5 | 0.45 µM | CC/C=C\C/C=C\C/C=C\CCCCCCCC1(O)CC(=O)c2c(O)cc(O)cc2O1 (stereo unspecified)
6 | 0.42 µM | CCCCC/C=C\C/C=C\CCCCCCCC1(O)CC(=O)c2c(O)cc(O)cc2O1 (stereo unspecified)

Source: ChEMBL document CHEMBL4014262, “Phloroglucinol Derivatives with Protein Tyrosine Phosphatase 1B Inhibitory Activities from Eugenia jambolana Seeds” (J Nat Prod, 2017)
